Results from patent publication US20230255975A1, “METHODS FOR TREATING CANCER WITH COMBINATION THERAPIES” (Celgene Corporation, priority 2020, published 2023).
Read-outs that look alike come from different tables or passages of the source.

Columns and labels:
[1] = system: other kinases, including Cdk1 and Aurora B; conditions: selective inhibitors of NEK2; Henise 2011, Innocenti 2012; cited from earlier work
[2] = system: H929-PR cell line; assay: Proliferation assay; type: cell-based; conditions: isogenic sensitive/resistant comparison, read-out: IC50 concentration, proliferation
Protocol: (§1) Proliferation and viability assay. Cell growth curves were determined by monitoring the viability of cells with Trypan blue exclusion on a Vi-Cell-XR (Becton Dickinson, Franklin Lakes, N.J., USA). Cell lines were plated in triplicate in 96-well round-bottom plates with the indicated drug concentrations or knockdown cells. Proliferation assays were performed in triplicate at least three times (n=3) using either the WST-1 tetrazolium salt (Roche Applied Science) reagent used according to the manufacturer's specifications or by (3H)-thymidine incorporation as previously described (Bjorklund et al., Blood Cancer Journal 5, e354, 2015). All data were plotted and analyzed using GraphPad Prism 7 (GraphPad Software, La Jolla, Calif., USA) software, represented as the mean with an error determined as ±s.d.

[3] = system: H929 cell line; assay: Proliferation assay; type: cell-based; conditions: Homo sapiens, read-out: IC50 concentration, proliferation
Protocol: (§2) Proliferation and viability assays: Cell growth curves were determined by monitoring the viability of cells with Trypan blue exclusion on a Vi-Cell-XR (Becton Dickinson, Franklin Lakes, N.J., USA). Proliferation assays were performed in triplicate at least three times (n=3) using (3H)-thymidine incorporation. All data were plotted and analyzed using GraphPad Prism 7 (GraphPad Software, La Jolla, Calif., USA) software, represented as the mean with an error determined as ±s.d.
as §1

[4] = system: K12PE cell line; assay: Proliferation assay; type: cell-based; conditions: for IC50: K12PE, read-out: IC50 concentration, proliferation
Protocol: as §2
as §2, with “assay.” for “assays:”, “Cell lines” for “Proliferation assays”, “plated” for “performed”, “in 96-well round-bottom plates with the indicated drug concentrations or knockdown cells. […]” for “at least three times (n=3) using (3H)-thymidine incorporation.”

[5] = system: AMO1-PR (pomalidomide resistant) cell line; assay: Proliferation assay; type: cell-based; conditions: for IC50: isogenic sensitive/resistant comparison, read-out: IC50 concentration, proliferation
Protocol: as §2
as §2, with “assay.” for “assays:”, “Cell lines” for “Proliferation assays”, “plated” for “performed”, “in 96-well round-bottom plates with the indicated drug concentrations or knockdown cells. […]” for “at least three times (n=3) using (3H)-thymidine incorporation.”

[6] = system: K12PE-PR cell line; assay: Proliferation assay; type: cell-based; conditions: for IC50: K12PE-PR, isogenic sensitive/resistant comparison, read-out: IC50 concentration, proliferation
Protocol: as §2
as §2, with “assay.” for “assays:”, “Cell lines” for “Proliferation assays”, “plated” for “performed”, “in 96-well round-bottom plates with the indicated drug concentrations or knockdown cells. […]” for “at least three times (n=3) using (3H)-thymidine incorporation.”

[7] = system: AMO1 cell line; assay: Proliferation assay; type: cell-based; conditions: AMO1; for IC50: Homo sapiens, read-out: IC50 concentration, proliferation
Protocol: as §2
as §2, with “assay.” for “assays:”, “Cell lines” for “Proliferation assays”, “plated” for “performed”, “in 96-well round-bottom plates with the indicated drug concentrations or knockdown cells. […]” for “at least three times (n=3) using (3H)-thymidine incorporation.”

[8] = system: CKS1B and E2F2 in EJM and EJM-PR cell lines; assay: CKS1B and E2F2 in response to Pom; type: cell-based; conditions: isogenic EJM and EJM-PR; FIG. 12
Protocol: Effects of Pomalidomide (Pom) on CKS1B and E2F2 in Pom sensitive and resistant cell lines. […] Since Aiolos was not degraded in the EJM-PR cell line consistent with the absence of CKS1B and E2F2 downregulation, the binding of Aiolos on the transcriptional start sites (TSS) of CKS1B and E2F2 was analyzed.

[9] = system: Control shRNA cell lines; assay: Biparametric Annexin V and Propidium Iodide assay; type: cell-based
Protocol: (§3) Biparametric assay for detection of cell cycle and apoptosis. Cell viability assay with Annexin V-FITC and propidium iodide was performed according to the published protocol cycle (Rieger et al., J Vis Exp. 2011, (50):2597; Léonce et al., Mol Pharmacol. 2001, 60(6):1383-1391).
(§4) Pomalidomide treatment combined with NEK2 inhibition increases apoptosis. Biparametric Annexin V and Propidium Iodide (PI) assay was performed to analyze cell cycle and apoptosis in the same sample and to quantify the proportion of cells undergoing apoptosis at each phase of cell cycle (Rieger et al., J Vis Exp. 2011, (50):2597; Léonce et al., Mol Pharmacol. 2001, 60(6):1383-1391). Control shRNA and NEK2 shRNA cell lines were treated with pomalidomide and followed cell cycle and apoptosis for the duration of two cell cycles. At 72 hours about 5.04% cells in the control shRNA lines were apoptotic compared to 21.1% apoptotic cells in NEK2 shRNA cell lines. […] At 96 hours about 9.5% of the cells in control shRNA lines and 24.7% of the NEK2 shRNA cell lines were apoptotic, and a majority of apoptotic cells were again contributed from G1-S phase of cell cycle. […] Combination of these two agents results in apoptosis of 20-25% cells in each cycle, with majority of apoptotic cells contributed from G1/S phase of cell cycle.

[10] = system: NEK2 shRNA cell lines; assay: Biparametric Annexin V and Propidium Iodide assay; type: cell-based
Protocol: as §3, §4

[11] = system: PLK1 transcript in MM1.S cells; assay: PLK1 transcript levels (qPCR); type: cell-based; conditions: FIG. 2D
Protocol: RNA Extraction, Reverse Transcription, and Real-Time PCR Analysis: Total RNA was extracted using a RNeasy plus kit (Qiagen, Germantown, Md., USA) and reverse-transcribed using an iScrip reverse transcription kit (Bio-Rad, Philadelphia, Pa., USA). Quantitative real-time PCR (qPCR) analyses were performed using Taqman PCR Master Mix and the ViiA 7 Real-Time PCR System (Applied Biosystems, Foster City, Calif., USA). Gene expressions were calculated following normalization to GAPDH levels using the comparative CT method (ΔΔCT method). The primer sequences for qPCR are following:
The effects of pomalidomide in isogenic sensitive (EJM) and resistant (EJM-PR) and MM1.S cell lines was analyzed. […] To determine the role of PLK1 in pomalidomide response, EJM and EJM-PR cell lines were treated with pomalidomide and analyzed changes in PLK1 levels and downstream signaling. […] The changes in PLK1 transcript levels were further examined in response to pomalidomide treatment in MM1. […] Since changes in PLK1 levels are due to decrease in PLK1 transcription in response to antiproliferative compounds, the effects of Aiolos and Ikaros knockdowns on PLK1 levels using MM1.S cells with inducible expression of Aiolos and Ikaros shRNAs were analyzed. […]

[12] = system: PLK1, pCDC25C and CDC25C in EJM cells; assay: Immunoblot of PLK1 signaling; type: cell-based; conditions: EJM (sensitive) cells only, not EJM-PR
Protocol: (§5) Immunoblotting: Immunoblot analysis was performed using WES kits, (Protein Simple, San Jose, Calif., USA) at least two times each (n≥2), where the best representative is shown.
(§6) The effects of pomalidomide in isogenic sensitive (EJM) and resistant (EJM-PR) and MM1.S cell lines was analyzed. […] To determine the role of PLK1 in pomalidomide response, EJM and EJM-PR cell lines were treated with pomalidomide and analyzed changes in PLK1 levels and downstream signaling. […] The changes in PLK1 transcript levels were further examined in response to pomalidomide treatment in MM1. […] Confocal microscopy was performed to study changes in PLK1 and CDC25C staining in MM1.S cells and a decrease in PLK1 levels and simultaneous decrease in CDC25C staining in response to pomalidomide and Compound 5 treatments was observed. […] Further analysis of the ChIP-seq datasets of Aiolos confirmed binding of Aiolos on TSS of PLK1 with overlapping transcriptional activation H3K27Ac signature extrapolated from publicly available ChIP-seq datasets in GM12878 cell line (Encode project). Since changes in PLK1 levels are due to decrease in PLK1 transcription in response to antiproliferative compounds, the effects of Aiolos and Ikaros knockdowns on PLK1 levels using MM1.S cells with inducible expression of Aiolos and Ikaros shRNAs were analyzed. Both Aiolos and Ikaros knock down lead to a decrease in PLK1 levels (FIG. 2F), indicating transcriptional regulation of PLK1 by substrates of Cereblon.

[13] = system: PLK1 signaling in MM1.S cells; assay: Immunoblot of PLK1 signaling; type: cell-based; conditions: MMS.1 cells, increasing concentrations; FIG. 2C
Protocol: as §5, §6

[14] = system: Ikaros (IKZF1), Aiolos (IKZF3) and ZFP91; assay: Substrate degradation by immunoblotting; type: cell-based; conditions: single agent
Protocol: Effect of NEK2 downregulation on Compound 5 and Compound 6-induced substrate degradation. […] The effect of NEK2 knockdown on pomalidomide mediated substrate degradation was also studied. Control and NEK2 shRNA cells were incubated to varying concentrations of pomalidomide. Pomalidomide treatment degraded Ikaros (IKZF1), Aiolos (IKZF3) and ZFP91 in a concentration dependent manner in control shRNA lines. A similar pattern of substrate degradation was maintained in NEK2 knockdown cell lines.

[15] = system: Mc-CAR cell line; assay: Proliferation assay; type: cell-based; conditions: 72 h; MC-CAR; Day 3 post treatment; NEK2 inhibitor; read-out: IC50 concentration, proliferation
Protocol: as §2, §1

[16] = NCI-H929, 72 h, Day 3 post treatment, NEK2 inhibitor
[17] = NCI-H929, isogenic sensitive/resistant comparison
[18] = 72 h, Day 3 post treatment, NEK2 inhibitor
[19] = isogenic sensitive/resistant comparison

| IC50 [2] | IC50 [3, 16] | IC50 [3, 17] | Compound | IC50 [4, 18] | IC50 [4, 19] | IC50 [5] | IC50 [6] | IC50 [7, 18] | IC50 [7, 19] | further results |
| --- | --- | --- | --- | --- | --- | --- | --- | --- | --- | --- |
| 5200 nM | 8 µM | 7.9 µM | CC(/C=C\C(F)(F)F)Oc1cc(-c2cc(-c3cc(CN(C)C)cs3)cnc2N)ccc1C(N)=O (racemic) [Rac-CCT 250863, 4-[2-amino-5-[4-[(dimethylamino)methyl]-2-thienyl]-3-pyridinyl]-2-[[(2Z)-4,4,4-trifluoro-1-methyl-2-buten-1-yl]oxy]benzamide] | 8.7 µM | 8.5 µM | 3600 nM | 5.17 µM | 7.1 µM | 7 µM | Selectivity: effect on other kinases, including Cdk1 and Aurora B [1]: low effect on other kinases |
|  |  |  | Nc1cccc2c1C(=O)N(C1CCC(=O)NC1=O)C2=O (stereo not drawn) [Compound 1, 4-amino-2-(2,6-dioxopiperidine-3-yl)isoindoline-1,3-dione] |  |  |  |  |  |  | CKS1B and E2F2 expression [8]: downregulated at the transcriptional level only in Pom sensitive cells; apoptotic cells ([9]; 72 hours): about 5.04%; apoptotic cells ([9]; 96 hours): about 9.5%; apoptotic cells ([10]; 72 hours): 21.1%; apoptotic cells ([10]; 96 hours): 24.7%; PLK1 transcript levels [11]: decreased PLK1 transcript levels in a dose dependent manner; PLK1 levels and downstream effector pCDC25C and CDC25C [12]: dose dependent decrease; PLK1 signaling [13]: dose dependent decrease; Synergy analysis (Calcusyn) of combination with JQ1 on proliferation ([4]; K12PE cells, in combination with JQ1): synergistic; Synergy with trametinib on proliferation ([5]; in combination with trametinib): strong synergy; Synergy of combination with JQ1 on proliferation ([6]; Pom resistant K12PE-PR, in combination with JQ1): synergistically decreased proliferation; Synergy with trametinib on proliferation ([7]; in combination with trametinib): strong synergy |
| 270 nM | 0.37 µM | 0.37 µM | C#CC(=O)Nc1ccc2c(c1)/C(=C/c1[nH]c(CC)nc1C)C(=O)N2 [JH295, (Z)—N-(3-((2-ethyl-4-methyl-1H-imidazol-5-yl)methylene)-2-oxoindolin-5-yl)propiolamide] | 4 µM | 4 µM | 310 nM | 10.8 µM | 0.48 µM | 0.48 µM | substrate degradation (Ikaros, Aiolos, ZFP91) in comparison to DMSO control [14]: No effect; IC50 [15]: 560 nM |
